How the values were obtained:
Hb = Hb occupancy estimate from blood levels of compound and Hb; assay type: in vivo; settings: day 12, C57BL/6 mice
Description: We conducted a PK/PD study to determine the optimal dosing strategy for HypoxyStat in a chronic setting. First we administered a single 10 mg/kg oral dose of HypoxyStat to adult C57BL/6 mice and monitored its concentration in blood and plasma over a 10-day period (Figure 3A, left). Next, we administered HypoxyStat at doses of 20, 60, 200, and 600 mg/kg via oral gavage three times per week for 12 days. […] Based on blood levels of HypoxyStat and Hb measured on day 12, we estimated Hb occupancy to be 29.3% at 200 mg/kg and 41.4% at 600 mg/kg (Figure S1).[27]
Figure S1. Hemoglobin occupancy estimates, related to Figure 1
LC/MS/MS measurement of steady-state whole-blood HypoxyStat concentrations after day 12 administration in C57BL/6 mice (200 or 600 mg/kg PO, […]
week in 0.5% HPMC), N = 10 per group.
(A) Oral administration of HypoxyStat every other day (vehicle = 0.5% HPMC).
(B) LC/MS/MS measurement of steady-state mean whole-blood HypoxyStat concentrations after day 12 administration in C57BL/6 mice.
(C) Hb concentration after analogous treatment.
(D) Hb occupancy was calculated by dividing the HypoxyStat concentration in blood by the Hb concentration in blood on day 12.

Ndufs4 KO mouse = Ndufs4 KO mouse model of Leigh syndrome (survival, body weight, temperature, behavior, neuropathology); assay type: in vivo
Text: We continuously bred Ndufs4 Het x Het mice to generate KO and controls for our experiments. Ndufs4+/− and WT mice were used as controls as they are identical in all previously reported assays. Ndufs4 mice were obtained directly from Jackson labs (#027058). Pups were weaned and genotyped at ~21 d after birth. The age of mice at the time of experiments is described throughout the text. Male and female mice were used throughout studies. All cages were provided with food and water, with hydrated gel provided to newly weaned cages. Body weights were recorded at every dosing. Mice were euthanized according to guidelines at 20% drop in peak body weight. All animal studies were approved by the Institutional Animal Care & Use Committee (IACUC) Program at UCSF/Gladstone.
Mice were administered HypoxyStat at 600 mg/kg every other day or 400mg/kg daily via oral gavage. For the disease prevention experiments, KO mice that underwent daily dosing were dosed starting ~P30 for 1 week of 200mg/kg daily, followed by 400mg/kg daily to allow for gradual dose escalation. For the reversal study, KO mice were dosed once with 200mg/kg on postnatal day ~P55, followed by 400mg/kg daily. HypoxyStat was formulated as a suspension at 60 mg/mL, 40mg/ml or 80mg/ml depending on dose in 0.5%HPMC and stored at 4 °C. The formulation was determined to be stable for at least 8 weeks. Animal body weight was taken at time of dosing to determine appropriate dosing volume (10 mL/kg for every other day dosing, 5ml/kg for daily dosing). Vehicle treated mice were administered the same volume of 0.5% HPMC.
Mice were euthanized via CO2 inhalation. To perfuse the whole body, the right atrium was nicked and a needle was inserted into the left ventricle. Ice-cold PBS was slowly injected first, followed immediately by 4% PFA solution. The brain was removed, stored in 4% PFA for 24–48 h, and then washed with PBS for 5 min (3 times). The brains were placed in 70% ethanol followed by paraffin embedding. For paraffin sections, brains were sagittally sectioned at 5 μm thickness. Prior to staining, sections were deparaffinized. Antigen retrieval was performed by heating the slides to boiling temperature in 10 mM sodium citrate solution (pH 6) in a microwave, followed by heating for 10 minutes. The sections were rinsed 3 times for 5 minutes each with PBS. They were then incubated in a blocking solution containing 5% donkey serum (DS) in PBS-Tx (PBS with 0.2% Triton X-100) for 60 minutes at room temperature. After blocking, sections were incubated overnight at 4C with the primary antibody IBA1 (Genetex GTX100042, 1:250) and NeuN (Sigma, MAB377, 1:500). Afterward, the sections were rinsed 3 times for 5 minutes with PBS-Tx. Next, they were incubated with a fluorophore-conjugated secondary antibodies (Invitrogen, A21206 or A31570) for 1 hour at room temperature. Following secondary antibody incubation, the sections were rinsed 3 times for 5 minutes with PBS-Tx, and then once for 5 minutes with PBS. Histology was quantified using either the percentage of Iba1+ positive signal or blinded scoring (on the scale of 1–5).
The open field instrument (San Diego Instruments) was used to measure spontaneous locomotor activity. Mice were placed in open field chambers and allowed to acclimate for 5 min before movement tracking for 20min. Spontaneous locomotor activity was measured based on beam breaks and recorded by the instrument. Age of measurements is +/− 5 days for practical purposes without any age bias between groups.

[1] = molecular target: T1, hemoglobin (Hb) in human red blood cells (Homo sapiens, UniProt P69905); assay: Oxy-hemoglobin dissociation curve (Hemox Analyzer), p50; assay type: biochemical
T1 construct: incubated for at least one hour at 37C with whole blood before Hemox analysis; endogenous in cells; host or cells: human red blood cells / whole blood
Description: One of the most extensively studied compounds for sickle cell anemia is GBT-440 (Voxelotor) (Figure 1B).[25] The extent of left-shifting can be assessed by determining the p50 or the partial pressure of oxygen at which half of the total Hb pool is bound to oxygen. We incubated human red blood cells with GBT-440 and observed a ~75% decrease in p50 (from ~28 to ~7 mmHg), consistent with previously reported values (Figure 1D). Experiments were performed using a HemOx analyzer that monitors oxygen saturation via Hb absorbance across a range of dissolved oxygen tensions. Upon further review of the sickle cell anemia literature, we found another compound, hereafter termed HypoxyStat (Figure 1B), which appeared to have a similar p50 as GBT-440.[26] We confirmed that HypoxyStat induced an ~82% decrease in p50 (Figure 1D).
Oxy-hemoglobin dissociation analysis was performed by the UCSF RBC laboratory using the TCS Hemox Analyzer (TCS Medical Products Company, Huntington Valley, PA). Initial pO2 is set to 160 mmHg. Hemoglobin is fully oxygenated under these conditions (HbO% =100). Replacement of air with nitrogen lowers pO2 and is measured by Clark electrode along with the change in the absorbance spectrum of hemoglobin. At a pO2 of 0 mmHg, hemoglobin is fully deoxygenated (HbO% =0). The relation between pO2 and HbO% is plotted, and the pO2 at which HbO% = 50% is defined as P50. The typical sigmoid de-oxygenation curve of normal blood with a P50 of 26–28 mmHg is used as a control for incubation conditions and to ensure proper function of the Hemox analyzer. For left-shifter comparison, the compounds were dissolved in HEPES buffered saline and then incubated for at least one hour at 37C with whole blood before Hemox analysis. A control of whole blood incubated with vehicle is also reported.

T1 sequence (P69905 2-142 limits assumed): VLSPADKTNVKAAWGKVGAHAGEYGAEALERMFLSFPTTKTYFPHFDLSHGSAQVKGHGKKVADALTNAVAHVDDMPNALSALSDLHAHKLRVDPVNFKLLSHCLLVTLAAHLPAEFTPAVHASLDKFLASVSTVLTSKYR
T1 sequence (P68871 2-147 partner limits assumed): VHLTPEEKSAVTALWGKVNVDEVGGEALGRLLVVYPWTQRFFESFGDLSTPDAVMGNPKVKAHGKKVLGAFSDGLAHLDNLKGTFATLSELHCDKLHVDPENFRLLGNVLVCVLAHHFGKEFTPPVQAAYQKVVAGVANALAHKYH

`O=Cc1ccccc1C(=O)N1CCCC[C@H]1COc1cccc(O)c1C=O` [HypoxyStat] was tested, and the Hb occupancy (Hb; 200 mg/kg PO 3 times per week) was 29.3%, the Hb occupancy (Hb; 600 mg/kg PO 3 times per week) was 41.4% and the “lifespan increase of Ndufs4 KO mice” value (Ndufs4 KO mouse; 400 mg/kg daily oral gavage from P30 (1 week at 200 mg/kg)) was 3–4 ×. For the same compound, the “tolerability of chronic dosing in control (WT or heterozygous) mice” value (Ndufs4 KO mouse; 600 mg/kg every other day or 400 mg/kg daily, all control mice survived) was “well tolerated”, the “lifespan increase of Ndufs4 KO mice” value (Ndufs4 KO mouse; 600 mg/kg every other day oral gavage from P30) was 1.5–2 × and the “body temperature of Ndufs4 KO mice” value (Ndufs4 KO mouse; HypoxyStat from P30) was “restored body temperature to normal levels”. For the same compound, the “motor coordination (rotarod) and spontaneous activity (open field) of KO mice” value (Ndufs4 KO mouse; HypoxyStat from P30) was “significantly improved motor coordination and spontaneous activity”, the “body weight of drug-treated KO mice” value (Ndufs4 KO mouse; HypoxyStat from P30, comparable with inhaled hypoxia) was “increased body weight” and the “lesion severity (Iba1 staining for microglial activation) at P50” value (Ndufs4 KO mouse; KO mice treated from P30, p < 0.05 vs vehicle) was “significant reduction in lesion severity”. For the same compound, the p50 ([1]; human red blood cells incubated 1 h with 10 mM compound, vehicle ~28 mmHg) was 5.6 mmHg and the “decrease in p50” value ([1]; human red blood cells incubated with compound, vs vehicle) was ~ 82%.

— article PMC12186697, “HypoxyStat, a small-molecule form of hypoxia therapy that increases oxygen-hemoglobin affinity” (Cell, 2025)
